Experimental data as given in US6713077B1, “Control of shoot/foliar feeding pests with pesticide seed treatments” (Monsanto Technology, LLC, priority 1999, dated 2004).
Where two headings read alike, the source gives them in different places.

Legend:
[1] = test system: black cutworm larvae; test: Example 8: stand reduction of corn by black cutworm, RAZE versus WARRIOR T seed treatment; format: in vivo; settings: band w/ incorporation 30 (grams/hectare)
Procedure: A lambda-cyhalothrin seed treatment formulation was prepared from WARRIOR T 11.4 CS formulation (Zeneca Ag Products, Wilmington, Del.), as described in Example 1. Also, a tefluthrin seed treatment formulation was prepared from RAZE […] formulation (available from Wilbur-Ellis Co.), by the same method. Each of these seed treatment formulations were applied for one minute at room temperature to twenty-five grams of Pioneer corn seed (Cultivar PN3394) in a rotostatic seed treater at the treatment rates noted in Table 9, below. The treated seeds were allowed to sit uncapped for four to twenty-four hours before planting.
Treated and untreated seeds (Pioneer hybrid PN3394) were planted in a soil mix consisting of Dupo silt loam, 30% Perlite, 20% coarse sand (WB-10 grade) in six groups of tubs (20 in. L×15 in. W×8 in. D). Twelve seeds were planted per tub and three tubs were planted for each treatment regimen. Soil applications of FORCE 3GR, which contains 3% tefluthrin as the active ingredient, were used for two sets of tubs containing untreated seeds. […]
(§1) The corn plants were infested at 12 DAP, which corresponds to late growth stage 11 by placing two black cutworm larvae at 3/4 instar on the soil surface near the base of the plant. […] The percent stand reduction due to plant cutting was calculated by dividing the number of cut plants into the number of plants present at infestation.

[2] = test system: black cutworm larvae; test: Example 5: stand reduction of corn by black cutworm, lambda cyhalothrin or tefluthrin seed treatment; format: in vivo; settings: band w/ incorporation 30 (grams/hectare)
Procedure: A lambda-cyhalothrin seed treatment formulation was prepared from the WARRIOR T insecticide and corn seed was prepared and treated as described in Example 1, except that the treatment levels were 125, 228 and 358 gm active ingredient/100 kg seed. A tefluthrin seed treatment formulation was also prepared from RAZE 2.5 FS, which contains tefluthrin as the active ingredient, into water as a carrier. Treated and untreated seeds were planted and cultivated as described as described in Example 1. Again, FORCE 3GR was applied and incorporated into a 5 inch band on the soil surface at the time of planting. The tubs were overhead irrigated until the plants were infested with black cutworm larvae.
The corn plants were infested at 12 DAP, as described in Example 1. Plants were rated at 10 days after infestation (DAI) for the number of cut plants. The percent stand reduction due to plant cutting was calculated by dividing the number of cut plants into the number of plants present at infestation.

[3] = cited from earlier work
[4] = temperature not given; cited from earlier work
[5] = test system: black cutworm larvae; test: Example 7: stand reduction of corn by black cutworm, bifenthrin, lambda-cyhalothrin and tefluthrin seed treatment; format: in vivo; settings: seed treatment 209 gm AI/100 kg of seed
Procedure: A lambda-cyhalothrin seed treatment formulation was prepared from WARRIOR T 11.4 CS formulation (Zeneca Ag Products, Wilmington, Del.), as described in Example 1. A seed treatment formulation was also prepared by the method as described in Example 1, except from CAPTURE® 2 EC (bifenthrin; available from FMC). Also, a seed treatment formulation was prepared from RAZE 2.5 FS formulation (available from Wilbur-Ellis Co.), containing 26.8% tefluthrin. Each of these seed treatment formulations were applied for one minute at room temperature to twenty-five grams of Pioneer corn seed (Cultivar PN3394) in a rotostatic seed treater at the treatment rates noted in Table 8, below. The treated seeds were allowed to sit uncapped for four to twenty-four hours before planting.
Treated and untreated seeds (Pioneer hybrid PN3394) were planted in a soil mix consisting of Dupo silt loam, 30% Perlite, 20% coarse sand (WB-10 grade) in six groups of tubs (20 in. L×15 in. W×8 in. D). Twelve seeds were planted per tub and three tubs were planted for each treatment regimen. […]
as §1

SMILES | STAND REDUCTION (%, 10 days after infestation) [1] | STAND REDUCTION (%, 10 days after infestation) [2] | Vapor pressure ([3]; 20° C.) | Water solubility [4] | STAND REDUCTION (%, 10 days after infestation) [5] | Vapor pressure ([3]; 25° C.)
Cc1c(F)c(F)c(COC(=O)[C@@H]2[C@H](/C=C(\Cl)C(F)(F)F)C2(C)C)c(F)c1F (racemic) [Tefluthrin, (2,3,5,6-tetrafluoro-4-methylphenyl)-methyl-(1 alpha, 3 alpha)-(Z)-(±)-3-(2-chloro-3,3,3-trifluoro-1-propenyl)-2,2-dimethylcyclopropanecarboxylate] | total protection | total protection | 8 mPa | – | – | –
Cc1c(COC(=O)C2C(C=C(Cl)C(F)(F)F)C2(C)C)cccc1-c1ccccc1 (stereo not drawn) [Bifenthrin, (2-methyl [1,1′-biphenyl]-3-yl)methyl 3-(2-chloro-3,3,3-trifluoro-1-propenyl)-2,2-dimethyl-cyclopropanecarboxylate] | – | – | – | 0.1 µg/mL | total protection | 0.024 mPa
